Test results: US20190133979A1, “METHOD FOR ENHANCING DELIVERY OF THERAPEUTIC DRUGS TO TREATMENT SITES” (Chang Gung University, priority 2013, published 2019)
“Also recorded” adds a separate entry of the source.

Experiments:
[1] = system: LN229 cells; assay: Determination of cell-associated MNPs (MNPcell) in LN229 cells; assay type: cell-based, human; conditions: for increase of MNPcell / enhancement of MNPcell at 4° C.: LN229 cells; for enhancement of MNPcell at 4° C.: 30 μM, 2 h; for effect on cell-associated MNPs (MNPcell), in words: LN-229 cells, with or without magnetic field; for effect on uptake of MNPs, in words: MNPs 100 μg/mL, 10 or 30 μM, 24 hrs, vs vehicle; for capability of enhancing cellular uptake of MNPs, in words / concentration as low as which cellular uptake of MNPs is significantly increased: FIG. 4; for capability of enhancing cellular uptake of MNPs, in words: LN-299 [sic] cells; for increase of cellular uptake of MNP: vs without compound
Description: (§1) LN229 cells, human glioma cells, were cultured in DMEM medium; whereas HeLa cells, human cervical cancer cells, were cultured in MEM medium. Both media were supplemented with 10% fetal bovine serum (FBS) and 1% penicillin/streptomycin/amphotericin B solution. The cells were maintained in a 37° C. incubator supplied with 5% CO2 and sub-cultured every 3 to 4 days.
LN229 or HeLa cells were seeded and grown in 24-well plates. […] In some experiments, cells were equilibrated at 4° C. for 20 min, followed by an additional 2-h incubation with MNPs at 4° C. in the absence and presence of the magnet. A home-made magnetic plate with 24 pieces of cylindrical NdFeB magnet were used to provide a magnetic field of 3.4 kG at the center of each well. For the group without the magnet during incubation with MNPs, the magnetic plate was placed underneath the culture plates for 5 min after MNP administration to facilitate MNP sedimentation. The cells were then washed twice with phosphate-buffered saline (PBS) and trypsinized prior to colorimetric quantification. The cell pellet containing cell-associated MNPs (MNPcell) was treated with 10% hydrochloric acid at 55° C. for 4 h, followed by adding ammonium persulfate (1 mg/mL) and potassium thiocyanate solution (1 M). The amount of cell-associated iron was determined with VICTOR3 Multilabel Plate Reader (PerkinElmer, Waltham, Mass.) at OD490. A calibration curve was prepared under identical conditions.

[2] = system: HeLa cells; assay: Determination of cell-associated MNPs (MNPcell) in HeLa cells; assay type: cell-based, human; conditions: for increase of MNPcell: 10 μM; for effect on cell-associated MNPs (MNPcell), in words: with or without magnetic field
Description: as §1
(§2) LN229 or HeLa cells were seeded and grown in 24-well plates. After attaining 80-90% confluence, the cells were exposed to MNPs (100 μg/mL) and phenolic compounds (10 or 30 μM) in the presence or absence of NdFeB magnet underneath the plate for 24 h. In some experiments, cells were equilibrated at 4° C. for 20 min, followed by an additional 2-h incubation with MNPs at 4° C. in the absence and presence of the magnet. A home-made magnetic plate with 24 pieces of cylindrical NdFeB magnet were used to provide a magnetic field of 3.4 kG at the center of each well. For the group without the magnet during incubation with MNPs, the magnetic plate was placed underneath the culture plates for 5 min after MNP administration to facilitate MNP sedimentation. The cells were then washed twice with phosphate-buffered saline (PBS) and trypsinized prior to colorimetric quantification. The cell pellet containing cell-associated MNPs (MNPcell) was treated with 10% hydrochloric acid at 55° C. for 4 h, followed by adding ammonium persulfate (1 mg/mL) and potassium thiocyanate solution (1 M). The amount of cell-associated iron was determined with VICTOR3 Multilabel Plate Reader (PerkinElmer, Waltham, Mass.) at OD490. A calibration curve was prepared under identical conditions.

[3] = system: tumor cells; assay: Timing of EGCG and MNP addition, MNPcell in 5 study groups; assay type: cell-based
Description: as §2
In this example, the timing for adding the present polyphenolic compound with MNPs to the tumor cells was investigated. To this purpose, 5 study groups were designed and respectively treated with the designated compounds, then the MNPcell in each group was determined. The concentrations of MNPs and epigallocatechin gallate (EGCG) or compound 12 used in this example were respectively 100 μg/mL and 10 μM. In Group I (the control group), cells were treated with MNPs (2 hrs). In Group 2, cells were first treated with EGCG (2 hrs), which was removed, and then with MNPs (2 hrs). In Group 3, cells were simultaneously treated with EGCG and MNPs for 2 hours. In Group 4, cells were first treated with EGCG (2 hrs), then with the combination of MNP and EGCG (2 hrs). […]

[4] = system: LN229 cells; assay: Confocal microscopy of fluorescent CMX-MNP internalization; assay type: cell-based, human
Description: LN229 cells were seeded onto poly-lysine coated coverslips 18 h before experiments. The cells were incubated with green fluorescent MNPs with carboxylmethyl-dextran coating (nano-screenMAG-CMX; 100 μg/mL) and methyl gallate (30 μM) at 37° C. for 2 h in the presence of NdFeB magnet underneath the culture plate. Cells were then washed twice with PBS and then incubated with Lysotracker® (0.125 μM) for 30 min for staining of lysosomes. The cells were than washed with PBS and fixed with 4% paraformaldehyde for 20 min at room temperature. The cells were counterstained with DAPI and imaged with a Zeiss LSM 510 Meta laser confocal microscope system equipped with a 100×/1.4 oil immersion objective lens. Image processing and analysis of fluorescent MNPs colocalized with cells was performed using Fiji Image J.

[5] = 10 μM, magnetic field-free environment

O.O=C(O)c1cc(O)c(O)c(O)c1 [Compound 1, Gallic acid monohydrate]
increase of MNPcell ([1]; 50 μM, absence of the magnet): 5.4 fold
increase of MNPcell ([1]; 50 μM, presence of the magnet): 3.9 fold
enhancement of MNPcell at 4° C. ([1]; with the magnet): 0.6 fold
enhancement of MNPcell at 4° C. ([1]; without magnet): 1.9 fold
effect on cell-associated MNPs (MNPcell), in words [1]: concentration-dependent increase
effect on uptake of MNPs, in words ([1]; absence of magnet): effective in enhancing the uptake of MNPs
effect on uptake of MNPs, in words ([1]; presence of magnet): effective in enhancing the uptake of MNPs
concentration as low as which a significant increase in LN229 cell-associated MNPs is induced ([1]; compared to vehicle, with and without magnet): 6 µM
increase of MNPcell ([2]; absence of the magnet): 1.8 fold
increase of MNPcell ([2]; presence of the magnet): 1.9 fold
effect on cell-associated MNPs (MNPcell), in words [2]: concentration-dependent increase

O=C(O)c1ccc(O)c(O)c1 [Compound 5, protocatechuic acid]
effect on uptake of MNPs, in words ([1]; presence of magnet): enhanced the uptake of MNPs in the presence of magnet

O=c1c(O)c(-c2ccc(O)c(O)c2)oc2cc(O)cc(O)c12 [quercetin]
cellular uptake of MNP higher than without compound ([1]; 20 μM, absence of magnetic field): 5 times
capability of enhancing cellular uptake of MNPs, in words [1]: possessed the capability of enhancing cellular uptake of MNPs; also recorded: enhanced cellular uptake of MNPs
effect on uptake of MNP in the presence of magnet, in words ([1]; presence of magnet): more significant increase in the uptake of MNP via a concentration-dependent manner

O=C(O[C@@H]1Cc2c(O)cc(O)cc2O[C@@H]1c1ccc(O)c(O)c1)c1cc(O)c(O)c(O)c1 [Compound 13, Epicatechin gallate]
increase of cellular uptake of MNP ([1]; 10 μM, external magnetic field): 5-6 times
increase of cellular uptake of MNP [1, 5]: 12 times
concentration as low as which cellular uptake of MNPs is significantly increased [1]: 3 µM
capability of enhancing cellular uptake of MNPs, in words ([1]; listed as ECG): possessed the capability of enhancing cellular uptake of MNPs; also recorded: enhanced cellular uptake of MNPs

O=C(O)/C=C/c1ccc(O)c(O)c1 [Compound 9, caffeic acid]
effect on uptake of MNPs, in words ([1]; presence of magnet): enhanced the uptake of MNPs in the presence of magnet

O=C(O[C@@H]1Cc2c(O)cc(O)cc2O[C@@H]1c1cc(O)c(O)c(O)c1)c1cc(O)c(O)c(O)c1 [Compound 12, Epigallocatechin gallate]
uptake of MNPs, in words ([3]; Group 2: EGCG 10 μM 2 hrs, removed, then MNPs 100 μg/mL 2 hrs): no enhanced uptake of MNPs was found
uptake of MNPs, in words ([3]; Group 3: EGCG 10 μM and MNPs 100 μg/mL simultaneously 2 hours, presence and absence of magnet): enhanced uptake of MNPs was achieved
uptake of MNPs, in words ([3]; Groups 4 and 5: EGCG pre-treatment 2 or 4 hrs, then MNP and EGCG 2 hrs, vs Group 3): did not result in further increase in the cellular uptake of MNPs
increase of cellular uptake of MNP ([1]; 10 μM, external magnetic field): 16 times
increase of cellular uptake of MNP [1, 5]: 5.7 times
concentration as low as which cellular uptake of MNPs is significantly increased [1]: 3 µM
capability of enhancing cellular uptake of MNPs, in words ([1]; listed as EGCG): possessed the capability of enhancing cellular uptake of MNPs; also recorded: enhanced cellular uptake of MNPs

O=C(O)c1ccc(O)cc1 [Compound 6, p-hydroxybenzoic acid]
effect on uptake of MNPs, in words ([1]; absence of magnet): none of them was effective
effect on uptake of MNPs, in words ([1]; presence of magnet): none of them was effective

COc1cc(/C=C/C(=O)O)ccc1O [Compound 11, ferulic acid]
effect on uptake of MNPs, in words ([1]; absence of magnet): none of them was effective
effect on uptake of MNPs, in words ([1]; presence of magnet): none of them was effective

O=C(O)c1cc(O)cc(O)c1 [Compound 7, α-resorcylic acid]
effect on uptake of MNPs, in words ([1]; absence of magnet): none of them was effective
effect on uptake of MNPs, in words ([1]; presence of magnet): none of them was effective

CCCOC(=O)c1cc(O)c(O)c(O)c1 [Compound 3, Propyl Gallate]
effect on uptake of MNPs, in words ([1]; absence of magnet): effective in enhancing the uptake of MNPs
effect on uptake of MNPs, in words ([1]; presence of magnet): effective in enhancing the uptake of MNPs

COC(=O)c1cc(O)c(O)c(O)c1 [Compound 2, Methyl Gallate]
internalization of MNPs, in words ([4]; 30 μM, 2 h, CMX-MNP 100 μg/mL, compared to vehicle control): greatly increased internalization of MNPs
overlap coefficient, Mander's coefficient, of MNP relative to lysosomes ([4]; in the presence of methyl gallate (n=8), vehicle 0.51±0.08): 0.65±0.03
increase of MNPcell ([1]; 10 μM, absence of the magnet): 1.4 fold
increase of MNPcell ([1]; 10 μM, magnet underneath cells): 2.1 fold
increase of MNPcell ([1]; 50 μM, absence of the magnet): 4.5 fold
increase of MNPcell ([1]; 50 μM, presence of the magnet): 2.9 fold
enhancement of MNPcell at 4° C. ([1]; with the magnet): 0.4 fold
enhancement of MNPcell at 4° C. ([1]; without magnet): 1.4 fold
effect on cell-associated MNPs (MNPcell), in words ([1]; listed as Methyl gallate): enhanced MNPcell in a concentration-dependent manner
effect on cell-associated MNPs (MNPcell), in words ([1]; listed as methyl gallate): concentration-dependent increase
effect on uptake of MNPs, in words ([1]; absence of magnet): effective in enhancing the uptake of MNPs
effect on uptake of MNPs, in words ([1]; presence of magnet): effective in enhancing the uptake of MNPs
increase of MNPcell ([2]; absence of the magnet): 0.6 fold
increase of MNPcell ([2]; presence of the magnet): 1.0 fold
effect on cell-associated MNPs (MNPcell), in words [2]: concentration-dependent increase

NC(=O)c1cc(O)c(O)c(O)c1 [Compound 4, 3,4,5-trihydroxybenzamide]
effect on uptake of MNPs, in words ([1]; absence of magnet): effective in enhancing the uptake of MNPs
effect on uptake of MNPs, in words ([1]; presence of magnet): effective in enhancing the uptake of MNPs

O=C(O)CCc1ccc(O)c(O)c1 [Compound 10, Dihydrocaffeic Acid]
effect on uptake of MNPs, in words ([1]; presence of magnet): enhanced the uptake of MNPs in the presence of magnet
